According to patent US7276524B2, “Pyridyl alkane acid amides as cytostatics and immunosuppressives” (Astellas Deutschland GmbH, priority 1996, dated 2007):

Row | SMILES | melting point
1 | CCN(CCCCC1CCN(C(c2ccccc2)c2ccccc2)CC1)C(=O)CCc1cccnc1 [compound 68, N-[4-(1-diphenylmethyl-piperidin-4-yl)-butyl]-N-ethyl-3-(pyridin-3-yl) -propionamide] | 72 to 74 °C
2 | O=C(COc1cccnc1)NCCCCC1CCN(C(c2ccccc2)c2ccccc2)CC1 [compound 84, N-[4-(1-diphenylmethyl-piperidin-4-yl)-butyl]-2-(pyridin-3-yloxy)-acetamide] | 103 to 105 °C
3 | O=C(CCc1cccnc1)NCCCCCC1CCN(C(c2ccccc2)c2ccccc2)CC1 [compound 101, N-[5-(1-diphenylmethyl-piperidin-4-yl)-pentyl]-3-(pyridin-3-yl)-propionamide] | 112 to 114 °C

Second part, the molecule after the results:

Row | melting point | SMILES
4 | 110 to 112 °C | O=C(CCc1cccnc1)NCCCCC1CCN(C2c3ccccc3COc3ccccc32)CC1 (centres unmarked) [compound 142, N-{4-[1-(6,11-dihydrodibenzo[b,e]oxepin-11-yl)-piperidin-4-yl]-butyl}-3-(pyridin-3-yl)-propionamide]
5 | 72 to 74 °C | O=C(CCc1cccnc1)NCCCCC1CCN(C(=O)c2ccccc2)CC1 [compound 162, N-[4-(1-benzoylpiperidin-4-yl)-butyl]-3-(pyridin-3-yl)-propionamide]
